Values after ≈ are worked out from the molar mass of the structure shown. Where a SMILES comes first, the peptide text is derived from it. Bridges are numbered along the chain shown (N, C = ends). [ ]: non-standard residue; d: D form. The star is where a group is joined. Hexanoyl(6-Ph) = O=C(CCCCCc1ccccc1)*; dDab = NCC[C@@H](N)C(=O)O; Octanoyl = CCCCCCCC(=O)*; Dab = NCC[C@H](N)C(=O)O
Key:
[1] = in vitro; conditions: human
Outline: (§1)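 HK-2 cells seeded 2000 cells/well in DMEM/F12 with 10% FBS, grown 24 h, then exposed to compounds (300 µM to 2.3 µM, 2-fold series; colistin/polymyxin B 1 mM to 7.8 µM) for 24 h at 37 °C. LDH in medium read at 450 nm after 30 min; cytotoxicity % relative to 1% Triton X-100 and untreated cells.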

[2] = tested on: S. aureus ATCC 25923; experiment: microbe, parasite or virus in culture
Outline: (§2)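 Compounds are diluted in broth, the strain is added, and the lowest concentration that inhibits growth is taken as the MIC (mg/L).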

[3] = tested on: K. pneumoniae ATCC 700603; experiment: microbe, parasite or virus in culture
Outline: as §2

[4] = tested on: A. baumannii ATCC 19606; experiment: microbe, parasite or virus in culture
Outline: as §2

[5] = tested on: K. pneumoniae BAA 2146; experiment: microbe, parasite or virus in culture
Outline: as §2

[6] = tested on: P. aeruginosa ATTC 27853; experiment: microbe, parasite or virus in culture
Outline: as §2

[7] = tested on: E. coli ATCC 25922; experiment: microbe, parasite or virus in culture
Outline: as §2

[8] = tested on: K. pneumoniae ATCC 13833; experiment: microbe, parasite or virus in culture
Outline: as §2

[9] = tested on: P. aeruginosa FADDI PA070; experiment: microbe, parasite or virus in culture
Outline: as §2

[10] = tested on: ATCC reference strains (Escherichia coli, Klebsiella pneumoniae, A. baumannii, and P. aeruginosa)
Protocol: All compounds synthesised in this study were assessed for their minimum inhibitory concentrations (MIC, mg/L) by broth microdilution assay against five antibiotic-sensitive and resistant ATCC reference strains covering the Gram-negative ESKAPE pathogens (Escherichia coli, Klebsiella pneumoniae, A. baumannii, and P. aeruginosa) (Table 1, Table 2 and Table 3). Staphylococcus aureus was also included as a representative Gram-positive bacterial strain. […] Polymyxin B 1, colistin 2, vancomycin and gentamicin were used as positive inhibitor comparator compounds. Compounds were counter-screened against human proximal tubular epithelial cells (HK-2), using LDH release as a general indicator of cellular toxicity.

[11] = tested on: human proximal tubular epithelial cells (HK-2); experiment: Cytotoxicity, LDH release assay in HK-2 cells
Outline: as §1

[12] = Gram-positive strain, broth microdilution, 18 h
[13] = ESBL strain, broth microdilution, 18 h
[14] = NDM-1 positive strain, broth microdilution, 18 h
[15] = broth microdilution, 18 h, 37 °C
[16] = Pmx-resistant clinical isolate, broth microdilution, 18 h

Molecule	MIC S. aureus ATCC 25923 ([2]; ATCC 25923, 18 h)	MIC K. pneumoniae ATCC 700603 ([3]; ATCC 700603, 18 h)	MIC A. baumannii ATCC 19606 ([4]; ATCC 19606, 18 h)	MIC K. pneumoniae BAA 2146 ([5]; BAA 2146, 18 h)	MIC P. aeruginosa ATTC 27853 ([6]; ATTC 27853, 18 h)	MIC E. coli ATCC 25922 ([7]; ATCC 25922, 18 h)	MIC K. pneumoniae ATCC 13833 ([8]; ATCC 13833, 18 h)	MIC S. aureus ATCC 25923 [2, 12]	MIC K. pneumoniae ATCC 700603 [3, 13]	MIC A. baumannii ATCC 19606 ([4]; broth microdilution, 18 h)	MIC K. pneumoniae BAA 2146 [5, 14]	MIC P. aeruginosa ATTC 27853 ([6]; broth microdilution, 18 h)	MIC E. coli ATCC 25922 [7, 15]	MIC K. pneumoniae ATCC 13833 ([8]; broth microdilution, 18 h)	MIC P. aeruginosa FADDI PA070 [9, 16]	CC50 at 24 h [1]	also measured
CC(C)C[C@@H]1NC(=O)[C@@H](Cc2ccccc2)NC(=O)[C@H](CCN)NC(=O)[C@@H](NC(=O)[C@@H](CCN)NC(=O)[C@@H](NC(=O)CCCCCc2ccccc2)[C@@H](C)O)CCNC(=O)[C@H]([C@@H](C)O)NC(=O)[C@H](CCN)NC(=O)[C@H](CCN)NC1=O [Compound 25] ({Hexanoyl(6-Ph)}-T[dDab][Dab][Dab][dF]L[Dab][Dab]T; lactam 3-C)	>32 µg/mL	1 µg/mL (≈ 0.879 µM)	2 µg/mL (≈ 1.76 µM)	0.5 µg/mL (≈ 0.44 µM)	2 µg/mL (≈ 1.76 µM)	0.5 µg/mL (≈ 0.44 µM)	4 µg/mL (≈ 3.52 µM)	–	–	–	–	–	–	–	–	> 300 µM	MIC P. aeruginosa FADDI PA070 ([9]; FADDI PA070, 18 h): 8 µg/mL (≈ 7.03 µM); MIC against the ATCC strains [10]: 0.5 to 4 µg/mL
CCCCCCCC(=O)N[C@H](C(=O)N[C@@H](CCN)C(=O)N[C@@H]1CCNC(=O)[C@H]([C@@H](C)O)NC(=O)[C@H](CCN)NC(=O)[C@H](CCN)NC(=O)[C@H](CC(C)C)NC(=O)[C@@H](Cc2ccccc2)NC(=O)[C@H](CCN)NC1=O)[C@@H](C)O [Compound 19] (Octanoyl-T[Dab][dDab][Dab][dF]L[Dab][Dab]T; lactam 3-C)	>32 µg/mL	>32 µg/mL	>32 µg/mL	>32 µg/mL	>32 µg/mL	>32 µg/mL	>32 µg/mL	–	–	–	–	–	–	–	–	> 300 µM	MIC for all strains [10]: > 32 µg/mL
colistin [Col 2, reference compound]	–	–	–	–	–	–	–	>32 µg/mL	0.25 µg/mL	0.25 µg/mL	0.25 µg/mL	0.5 µg/mL	0.25 µg/mL	0.25 µg/mL	>32 µg/mL	–	CC50 [11]: > 300 µM

Further lines, with some results ahead:

MIC S. aureus ATCC 25923 ([2]; ATCC 25923, 18 h)	MIC K. pneumoniae ATCC 700603 ([3]; ATCC 700603, 18 h)	MIC A. baumannii ATCC 19606 ([4]; ATCC 19606, 18 h)	MIC K. pneumoniae BAA 2146 ([5]; BAA 2146, 18 h)	MIC P. aeruginosa ATTC 27853 ([6]; ATTC 27853, 18 h)	MIC E. coli ATCC 25922 ([7]; ATCC 25922, 18 h)	MIC K. pneumoniae ATCC 13833 ([8]; ATCC 13833, 18 h)	MIC S. aureus ATCC 25923 [2, 12]	MIC K. pneumoniae ATCC 700603 [3, 13]	MIC A. baumannii ATCC 19606 ([4]; broth microdilution, 18 h)	MIC K. pneumoniae BAA 2146 [5, 14]	MIC P. aeruginosa ATTC 27853 ([6]; broth microdilution, 18 h)	MIC E. coli ATCC 25922 [7, 15]	MIC K. pneumoniae ATCC 13833 ([8]; broth microdilution, 18 h)	MIC P. aeruginosa FADDI PA070 [9, 16]	Molecule	CC50 at 24 h [1]	also measured
>32 µg/mL	32 µg/mL (≈ 29.7 µM)	>32 µg/mL	16 µg/mL (≈ 14.9 µM)	16 µg/mL (≈ 14.9 µM)	–	>32 µg/mL	–	–	–	–	–	–	–	–	CCCCCCCC(=O)N[C@H](C(=O)N[C@@H](CO)C(=O)N[C@H]1CCNC(=O)[C@H]([C@@H](C)O)NC(=O)[C@H](CCN)NC(=O)[C@H](CCN)NC(=O)[C@H](CC(C)C)NC(=O)[C@@H](Cc2ccccc2)NC(=O)[C@H](CCN)NC1=O)[C@@H](C)O [Compound 35] (Octanoyl-TS[Dab][Dab][dF]L[Dab][Dab]T; lactam 3-C)	220 µM	MIC for most strains [10]: 16 to 32 µg/mL
–	–	–	–	–	–	–	>32 µg/mL	0.5 µg/mL	0.25 µg/mL	0.25 µg/mL	0.5 µg/mL	1 µg/mL	1 µg/mL	32 µg/mL	polymyxin B [PmxB 1, reference compound]	–	CC50 ([11]; read-out: CC50 HK-2, LDH release, 24 h incubation): > 300 µM
